One data set has as its system C57BL/6 mice. The experiment in a line: Tolerability in melanoma-bearing mice (μCT of healthy organs, dissection). Particulars: 10 mg/kg i.p. days 3, 5, 7, dissections, data not shown. It counts as in vivo, mouse. Here is the method: For the subcutaneous melanoma tumor model, suspensions of B16F1 cells (2.5 × 10^5 cells in 100 μL RPMI-1640 medium) were subcutaneously injected into the left flank of different randomized series of syngeneic C57BL/6 mice (n = 8–10 per group), as previously described. Intraperitoneal administrations of peptide (10 mg/kg mouse weight) or controls (physiological serum 0.9% (w/v) NaCl or a scrambled peptide) were performed at days 3, 5 and 7. In human pancreatic carcinoma xenograft experiments, 3 × 10^6 MIA PaCa-2 cells/mouse were implanted subcutaneously into the left flank of BALB/C athymic nude mice, then TAX2 intraperitoneal treatments (10 mg/kg mouse weight) were performed 3 times a week during 4 weeks starting at day 10 after tumor cells inoculation. Tumor volume was determined according to v = 0.5 A × B^2, where A denotes the largest dimension of the tumor and B represents the smallest dimension. […]
Animals were anesthetized by isoflurane (Forene, Abbott France, Rungis, France) inhalation (3% for induction and 1–1.5% for maintenance) and then after placed in a carbon fibers bed. […] Analysis of reconstructed images and quantification of the vascular network were performed using Amira 5.4.3 software.

The test system of data set [1] is microvessel sprouting from mouse aortic rings (C57BL/6). The experiment in a line: Mouse aortic ring assay (ex vivo). To be noted: 100 μM, 6 days, mouse aortic ring in matrigel. Here is the method: Figure 2 TAX2 peptide impairs endothelial cell migration and inhibits angiogenesis in vitro and ex vivo A. HUVECs were treated with TAX2 (100 μM) or scrambled peptide (Ctrl, 100 μM). CD47 was immunoprecipitated from total protein lysates using anti-CD47 (clone B6H12) and non-specific IgGs were used as a negative control. Immunocomplexes were then submitted to SDS-PAGE and immunoblotted (IB) using specific TSP-1 and CD47 antibodies. Histogram represents the quantification of co-immunoprecipitated TSP-1 relative to immunoprecipitated CD47. Results are expressed as percentage compared to control (n = 3 separate experiments, t test). B. HUVECs (1 × 10^5 per well) were grown at confluence and then cell proliferation was inhibited by incubating with 10 μg/mL mitomycin C for 2 h. […] Graph represents the quantification of the wounded area. […] Hoechst-stained migrating cells attached on outside surface of the top chamber were photographed (20× objective) and counted. Results are expressed as percentage of migrated cells as compared to control. […] After 8 h incubation, HUVEC tube-like formation was observed on an inverted microscope (40×) and quantification of network total length was done using ImageJ software. […] Data are expressed as the mean ± SE from at least 3 independent experiments, each performed in triplicate. […] The transcriptional level of TSP-1 was assessed by RT-PCR and normalized to β-actin. […]

Another data set concerns TSP-1. Briefly: Surface plasmon resonance. Format: binding. Particulars: data not shown. A general note: In SPR one partner is held on a chip, and binding of the other changes the refractive index at the surface.
In data set [2] the test system is tumor vascularization of B16F1 melanoma in C57BL/6 mice. The experiment in a line: B16F1 melanoma tumor angiography (μCT) and CD31 immunostaining. Format: in vivo, mouse. To be noted: 10 mg/kg i.p. days 3, 5, 7. Here is the method: For the subcutaneous melanoma tumor model, suspensions of B16F1 cells (2.5 × 10^5 cells in 100 μL RPMI-1640 medium) were subcutaneously injected into the left flank of different randomized series of syngeneic C57BL/6 mice (n = 8–10 per group), as previously described. Intraperitoneal administrations of peptide (10 mg/kg mouse weight) or controls (physiological serum 0.9% (w/v) NaCl or a scrambled peptide) were performed at days 3, 5 and 7. In human pancreatic carcinoma xenograft experiments, 3 × 10^6 MIA PaCa-2 cells/mouse were implanted subcutaneously into the left flank of BALB/C athymic nude mice, then TAX2 intraperitoneal treatments (10 mg/kg mouse weight) were performed 3 times a week during 4 weeks starting at day 10 after tumor cells inoculation. Tumor volume was determined according to v = 0.5 A × B^2, where A denotes the largest dimension of the tumor and B represents the smallest dimension. At days indicated, mice were sacrificed and tumors were surgically extracted and fixed in 4% paraformaldehyde for further morphologic studies and for magnetic resonance imaging, or frozen for immunohistochemistry. Mice were also weighed every 2–3 days and daily checked for any modification in their behavior. Loss of 15% body weight was an indication for euthanasia as well as severe tumor necrosis, as it was sometimes associated with skin ulceration that would result in loss of body fluid and/or infection.
Histological analysis of formaldehyde-fixed and paraffin-embedded tumors were performed on hemalun, phloxin and saffron (HPS) stained 3 μm thick sections prepared using routine histological methods. To assess tumor-associated microvessel density (MVD), CD31 immunostaining was performed on 5 μm thick cryosections using biotin-labeled secondary antibody and streptavidin-HRP AEC detection system (Microm Microtech, Francheville, France), followed by hematein counter-coloration. Negative controls were done omitting the primary antibody. The necrotic part relative to total tumor surface for each tumor slice as well as MVD were quantified using ImageJ software.
Animals were anesthetized by isoflurane (Forene, Abbott France, Rungis, France) inhalation (3% for induction and 1–1.5% for maintenance) and then after placed in a carbon fibers bed. CT images were acquired on a dedicated small animal μCT scanner (Skyscan 1076, Bruker, Kontich, Belgium) while continuously rotating the camera by 180° with the following parameters: 50 kV, 0.5 mm Al filter, 200 μA source current, 35 μm isotropic resolution, 180 ms exposure time, 4 projection images per 0.7° rotation step and a retrospective synchronization. The projections were reconstructed using a filtered backprojection algorithm using Skyscan software (NRecon, Skyscan). For tumor angiography analysis, an alkaline earth-based nanoparticulate contrast agent (Viscover ExiTron nano 12000, Miltenyi Biotec, Paris, France) was injected in the mouse tail vein. Mice were imaged during the next 30 min following injection, a period during which no reduction in contrast was observed. Analysis of reconstructed images and quantification of the vascular network were performed using Amira 5.4.3 software.

The mark [3] stands for this setting: μCT angiography, representative of n = 5.

The record followed here is article PMC4627230, “Identification of TAX2 peptide as a new unpredicted anti-cancer agent” (Oncotarget, 2015).

Entries after “also recorded” stand apart in the source; their conditions may differ.

“CEVSQLLKGDAC (disulfide) [TAX2, CD47-derived cyclic disulfide dodecapeptide …]”: the “thrombosis, hemorrhage or embolism in melanoma-bearing mice” value in the data set with C57BL/6 mice is on record as “neither μCT imaging of healthy organs nor mice dissections highlighted any sign of thrombosis, hemorrhage or embolism; also recorded: no signs of thrombosis, hemorrhage or embolism were observed in healthy organs”. Moreover, the “microvessel sprouting from the aorta” value in data set [1] is listed as “markedly inhibited”. The “binding to TSP-1 by surface plasmon resonance” value in the data set with TSP-1 is recorded as “confirmed”. The “tumor vasculature appearance in 3D reconstruction, day 14” value in data set [2] is “highly anarchic and discontinuous, only at the tumor surface, surrounding a central hemorrhagic area”. Also, in data set [2] (tumor cryosections, n = 6), the “blood vessel size (CD31)” value is given as “diminution in vessel size” and the “diminution in intratumoral MVD (CD31)” value worked out at 60%. Also, in data set [2] (setting [3]), the “blood vessels within tumors, day 7” value is listed as “undetectable”; the “central vascular network within tumors, day 14” value is “still lacking and a wide hemorrhagic area corresponding to the previously described necrotic zone was observed”; the “intratumoral vascularization, day 10” value is on record as “restricted to tumor periphery”. In addition, in data set [2] (μCT day 14), the “length and diameter of tumor blood vessels” value is “significantly decreased both the length and diameter of blood vessels”; the “reduction in blood vessel mean volume” value is 2 fold.
